What all share (assay): relative viability (nuclei count vs DMSO), 5 days (fraction); higher = more cells survive
Compound in the assay “Crenolanib + Navitoclax”: CC1(COc2ccc3c(c2)ncn3-c2ccc3cccc(N4CCC(N)CC4)c3n2)COC1 [Crenolanib] + CC1(C)CCC(c2ccc(Cl)cc2)=C(CN2CCN(c3ccc(C(=O)NS(=O)(=O)c4ccc(N[C@H](CCN5CCOCC5)CSc5ccccc5)c(S(=O)(=O)C(F)(F)F)c4)cc3)CC2)C1 [Navitoclax] (partner 0.5 µM)
An outline of the steps:
(§1)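 Lung cancer cell lines were pin-tool dosed in 1536-well plates on the day after seeding, with either a lone drug or a fixed anchor-drug dose plus five library-drug doses (not always all listed) in √10 steps. Nuclei were counted on 4× images after 5 days. Relative viability is the ratio of treated-well to vehicle-well nuclei counts, with each value a median of duplicate plates.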

Compound in the assay “Tivantinib + Tozasertib”: O=C1NC(=O)[C@@H](c2cn3c4c(cccc24)CCC3)[C@@H]1c1c[nH]c2ccccc12 [Tivantinib] + Cc1cc(Nc2cc(N3CCN(C)CC3)nc(Sc3ccc(NC(=O)C4CC4)cc3)n2)n[nH]1 [Tozasertib] (partner 0.1 µM)
An outline of the steps:
as §1

Compound in the assay “Tivantinib + Linsitinib”: O=C1NC(=O)[C@@H](c2cn3c4c(cccc24)CCC3)[C@@H]1c1c[nH]c2ccccc12 [Tivantinib] + C[C@]1(O)C[C@@H](c2nc(-c3ccc4ccc(-c5ccccc5)nc4c3)c3c(N)nccn32)C1 [Linsitinib] (partner 1 µM)
An outline of the steps:
as §1

Compound in the assay “Crenolanib + OSI-027”: CC1(COc2ccc3c(c2)ncn3-c2ccc3cccc(N4CCC(N)CC4)c3n2)COC1 [Crenolanib] + COc1cccc2cc(-c3nc([C@H]4CC[C@H](C(=O)O)CC4)n4ncnc(N)c34)[nH]c12 [OSI-027] (partner 0.5 µM)
An outline of the steps:
as §1

For UMC-11, the relative viability came to 0.333 in the assay with Crenolanib + Navitoclax (first compound 0.01 µM); 0.331 with Crenolanib + Navitoclax (first compound 0.03162 µM); 0.301 with Crenolanib + Navitoclax (first compound 0.1 µM); 0.341 with Crenolanib + Navitoclax (first compound 0.3162 µM); 0.31 with Crenolanib + Navitoclax (first compound 1 µM); 0.202 with Tivantinib + Tozasertib (first compound 0.01 µM). Moreover, the relative viability with Tivantinib + Tozasertib (first compound 0.1 µM) amounted to 0.178; with Tivantinib + Tozasertib (first compound 0.3162 µM), 0.188; with Tivantinib + Linsitinib (first compound 0.01 µM) it was 0.974; with Tivantinib + Linsitinib (first compound 0.03162 µM), 0.979; with Tivantinib + Linsitinib (first compound 0.1 µM) it was 0.943; in the assay with Tivantinib + Linsitinib (first compound 0.3162 µM) it was 1. Further, the relative viability with Crenolanib + OSI-027 (first compound 0.01 µM) stood at 0.523; in the assay with Crenolanib + OSI-027 (first compound 0.03162 µM), 0.535; with Crenolanib + OSI-027 (first compound 0.1 µM), 0.538; with Crenolanib + OSI-027 (first compound 0.3162 µM) it was 0.546; with Crenolanib + OSI-027 (first compound 1 µM) it was 0.514.

(Values after the supplement of paper PMC10307832.)
